Our source for the herbicidal activity values is patent US11178871B2, “Herbicidal pyrimidine compounds” (BASF SE, priority 2016, dated 2021).

What all share (format): in vivo
Experiment [1] concerns Echinocloa crus-galli. Kind of experiment: greenhouse test, post-emergence treatment, ECHCG. The note with it: post-emergence. The method in brief: (§1)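 Post-emergence: plants grown in loamy sand (~3.0% humus) to 3-15 cm, then sprayed with active ingredient suspended or emulsified in water; kept at 10-25 °C or 20-35 °C by species. Damage rated visually after 2-4 weeks, 0 (none) to 100 (complete destruction of aerial parts).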

The subject of experiment [2] is Echinocloa crus-galli. Kind of experiment: greenhouse test, pre-emergence treatment, ECHCG. The method in brief:
(§2)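 Pre-emergence greenhouse test: seeds sown per species in loamy sand (about 3.0% humus), aqueous suspension or emulsion of active sprayed right after sowing, pots covered until rooting. Kept at 10-25 °C or 20-35 °C for 2 to 4 weeks; damage scored 0 (none) to 100 (no emergence/complete destruction).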

A further experiment has as its system Apera spica-venti. Kind of experiment: greenhouse test, pre-emergence treatment, APESV. A digest of the protocol: as §2
The test system of a further experiment is Setaria viridis. Kind of experiment: greenhouse test, post-emergence treatment, SETVI. An excerpt:
The culture containers used were plastic flowerpots containing loamy sand with approximately 3.0% of humus as the substrate. The seeds of the test plants were sown separately for each species.
For the post-emergence treatment, the test plants were first grown to a height of 3 to 15 cm, depending on the plant habit, and only then treated with the active ingredients which had been suspended or emulsified in water. For this purpose, the test plants were either sown directly and grown in the same containers, or they were first grown separately as seedlings and transplanted into the test containers a few days prior to treatment.
Depending on the species, the plants were kept at 10-25° C. or 20-35° C., respectively.
The test period extended over 2 to 4 weeks. During this time, the plants were tended, and their response to the individual treatments was evaluated.
Evaluation was carried out using a scale from 0 to 100. 100 means no emergence of the plants, or complete destruction of at least the aerial moieties, and 0 means no damage, or normal course of growth. A good herbicidal activity is given at values of at least 70 and a very good herbicidal activity is given at values of at least 85.
The plants used in the greenhouse experiments were of the following species: […]

For the next experiment, the system named is Alopecurus myosuroides. Kind of experiment: greenhouse test, post-emergence treatment, ALOMY. The note with it: post-emergence. A digest of the protocol:
as §1

Structures are written as SMILES.

Turning to `Clc1ccccc1-c1cnc(C2CC2)nc1-c1ccco1` [Ex. 24], the herbicidal activity entry with Echinocloa crus-galli [1] (2000 g/ha), in the experiment on Echinocloa crus-galli [2] (2000 g/ha), in the experiment with Apera spica-venti (2000 g/ha) and with Setaria viridis (2000 g/ha) was “very good (a very good herbicidal activity is given at values of at least 85)” each time.

On to `Cc1ccoc1-c1nc(C2CC2)ncc1-c1ccccc1Cl` [Ex. 30], for which the herbicidal activity result with Echinocloa crus-galli [2] (2000 g/ha), in the experiment on Alopecurus myosuroides (2000 g/ha), with Apera spica-venti (2000 g/ha) and in the experiment with Setaria viridis (2000 g/ha) was “very good (a very good herbicidal activity is given at values of at least 85)” each time.

For `Clc1ccccc1-c1cnc(C2CC2)nc1-c1ccc(Br)o1` [Ex. 31], the herbicidal activity entry in the experiment on Echinocloa crus-galli [2] (2000 g/ha), in the experiment with Alopecurus myosuroides (2000 g/ha), in the experiment with Apera spica-venti (2000 g/ha) and in the experiment on Setaria viridis (2000 g/ha) was “very good (a very good herbicidal activity is given at values of at least 85)” each time.

As for `CC(O)c1nc(C2CC2)ncc1-c1ccccc1Cl` (centres unmarked) [Ex. 49], the herbicidal activity result is “good (A good herbicidal activity is given at values of at least 70)” in the experiment with Echinocloa crus-galli [1] (1000 g/ha); “good (A good herbicidal activity is given at values of at least 70)” in the experiment on Echinocloa crus-galli [2] (1000 g/ha); “very good (a very good herbicidal activity is given at values of at least 85)” in the experiment on Alopecurus myosuroides (1000 g/ha); “good (A good herbicidal activity is given at values of at least 70)” in the experiment with Apera spica-venti (1000 g/ha); “very good (a very good herbicidal activity is given at values of at least 85)” in the experiment on Setaria viridis (1000 g/ha).

Regarding `Clc1ccccc1-c1cnc(C2CC2)nc1C=C1CCOCC1` [Ex. 92], the herbicidal activity result in the experiment with Echinocloa crus-galli [1] (2000 g/ha), with Alopecurus myosuroides (2000 g/ha) and in the experiment with Setaria viridis (2000 g/ha) was “good (A good herbicidal activity is given at values of at least 70)” each time.

In the case of `Cc1cc(-c2nc(C3CC3)ncc2-c2ccccc2Br)co1` [Ex. 271], the figures for the herbicidal activity result in the experiment on Echinocloa crus-galli [1] (1000 g/ha) and with Setaria viridis (1000 g/ha) were “good (A good herbicidal activity is given at values of at least 70)” and “very good (a very good herbicidal activity is given at values of at least 85)”, respectively.

Turning to `Cc1nc(-c2nc(C3CC3)ncc2-c2ccccc2Cl)c(C)o1` [Ex. 277], the herbicidal activity entry in the experiment on Echinocloa crus-galli [1] (1000 g/ha), with Echinocloa crus-galli [2] (1000 g/ha), in the experiment with Alopecurus myosuroides (1000 g/ha), with Apera spica-venti (1000 g/ha) and in the experiment on Setaria viridis (1000 g/ha) was “very good (a very good herbicidal activity is given at values of at least 85)” in each case.

Consider `Cc1nc(C)c(-c2nc(C3CC3)ncc2-c2cc(Br)ccc2Br)o1` [Ex. 292], for which the herbicidal activity result in the experiment on Echinocloa crus-galli [1] (1000 g/ha) is “very good (a very good herbicidal activity is given at values of at least 85)”; in the experiment with Echinocloa crus-galli [2] (1000 g/ha) it was “very good (a very good herbicidal activity is given at values of at least 85)”; in the experiment on Alopecurus myosuroides (1000 g/ha), “good (A good herbicidal activity is given at values of at least 70)”; in the experiment with Apera spica-venti (1000 g/ha), “very good (a very good herbicidal activity is given at values of at least 85)”; with Setaria viridis (1000 g/ha), “very good (a very good herbicidal activity is given at values of at least 85)”.
